Reference: patent publication US20180009764A1, “METHOD FOR TREATING MACROPHAGE MIGRATION INHIBITORY FACTOR (MIF)-IMPLICATED DISEASES AND CONDITIONS WITH IODO PYRIMIDINE DERIVATIVES” (UNIVERSITY OF LOUISVILLE RESEARCH FOUNDATION, INC., priority 2009, published 2018)
pIC50: −log10 of the molar value. In brackets after ≈: the same amount, converted by molar mass.

Experiments:
MIF [1] = biological target: T1, MIF (Homo sapiens, UniProt P14174); assay: MIF cell lysate enzymatic inhibition; assay type: biochemical; conditions: cell lysates
T1 construct: the enzymatic activity of MIF present in cell lysates; endogenous in cells
T1 sequence (P14174 2-115 limits assumed): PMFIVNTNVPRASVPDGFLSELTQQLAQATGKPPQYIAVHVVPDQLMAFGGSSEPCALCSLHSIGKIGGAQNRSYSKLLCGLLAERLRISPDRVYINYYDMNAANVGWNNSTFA
Protocol: Normal or transformed cell lysates can be used to determine the concentration inhibiting the enzymatic activity of MIF present in cell lysates. Cells are cultured in the appropriate media to the required number of cells, collected, and lysed. Compounds to be characterized are solubilized in DMSO and serial dilutions are performed in order to obtain a range of concentrations including complete and no quantifiable inhibition.

[2] = tested on: primary human T lymphocytes; assay: Anti-CD3 induced T lymphocyte activation/proliferation (flow cytometry); assay type: cell-based; conditions: 25 μM
Protocol: In order to assess the ability of MIF antagonists to disrupt autoimmune-associated T cell activation, primary human T lymphocytes were prepared using standard Ficoll-gradient preparations. 1×10^6 lymphocytes/ml were resuspended in RPMI/10% FCS and plated onto anti-CD3 antibodies previously immobilized onto tissue culture plates. Control, vehicle control (0.1% DMSO), 25 μM 4-IPP or 25 μM ACT-003 were added to cells and allowed to incubate for 48 hours. Cells were lifted, washed and stained with anti-CD4 or anti-CD8 antibodies and then analyzed by flow cytometry.
To validate the effects of MIF antagonists on T lymphocyte activation, experiments were set up exactly as described above and, 48 hours later, treated and untreated lymphocytes were stained with an anti-CD25 antibody. CD25 is also known as the high affinity IL-2 receptor—a very well characterized and frequently marker of T lymphocyte activation.
In order to investigate the relative kinetics of when 4-IPP and ACT-003 are acting in blocking T lymphocyte activation, we repeated the experiment described above but harvested lymphocytes only 16 hours after anti-CD3 plating. At this early time point during T lymphocyte activation, CD69 is found to be expressed and is usually considered to be an “early marker” of lymphocyte activation.
Finally, to confirm that proliferation of CD4+ and CD8+ T lymphocytes is blocked by 4-IPP-based MIF antagonists, we repeated the experiment as described above, added labeled-BrdU to cells, stained with either labeled anti-CD4 or anti-CD8 antibodies and then assessed relative CD4/CD8 and BrdU labeling in each treatment group.

MIF [3] = biological target: T2, MIF (Mus musculus, UniProt P34884); assay: MIF liver lysates enzymatic activity ex vivo (L-dopachrome tautomerase); conditions: mice; IP 1 mg in corn oil every day for 3 days; livers 6 hours after last injection; FIG. 1
T2 construct: from tissue; host or cells: mouse liver (A7); liver, lung and brain of C57BL6 mice (A20)
Protocol: This experiment, using an ex-vivo approach and the tautomeric reaction of L-dopachrom, was designed to ascertain the level of inhibition of MIF following administration of the compounds of this invention via oral, IV, IP or any other route of administration. Mice were used in the example illustrated below, but other animals could be used as well. Groups of 3 mice were administered IP 1 mg of 4-IPP and ACT-002 resuspended in 100 μl of corn oil every day for 3 days. Mice were sacrificed 6 hours after the last injection and livers were harvested. ˜1 gram pieces of liver were lysed in PBS containing 1 mM NaVO4, 2 mM NaF and a protease inhibitor cocktail (Roche Biochemical, Indianapolis, Ind.) using dounce-homogenization on ice. 500 μg of liver lysates were added to a final volume of 700 μl PBS in plastic cuvettes. 4 mM L-3, 4-dihydroxyphenylalanine methyl ester and 8 mM sodium periodate (Sigma-Aldrich) were combined in a 3:2 ratio to form L-dopachrome methyl ester. 300 μL of L-dopachrome methyl ester was then immediately added to the cuvettes; the OD475 nm was measured 2 min and 4 min after addition of the L-dopachrome.

[4] = Solubility in varying solvents; assay type: physicochemical; conditions: 21 °C, 20-22° C.
p53 = p53 up regulation, p53 luciferase assay; assay type: cell-based; conditions: 10 μM; FIG. 5
Protocol: The up regulation of p53 was determined using a commercially available p53 luciferase assay kit. 1×10^5 cells/ml were plated in a 24 well plate and allowed to adhere overnight. MIF antagonists were added to the cells at the indicated concentrations for 16 hours and transiently co-transfected with 0.125 μg/well of p53-responsive luciferase promoter plasmid (Promega, Madison, Wis.) together with 0.0125 μg/well Renilla pRL-null plasmid (Promega) using Lipofectamine (Invitrogen) transfection reagent. After 24 hrs, Firefly and Renilla luciferase activities were measured by the Dual Luciferase Reporter Assay System (Promega, Madison, Wis.) on a TD-20/20 luminometer (Turner Designs).

MIF [5] = biological target: T2, MIF; assay: Oral bioavailability: ex vivo MIF enzymatic activity in liver, brain and lung after IP and PO dosing; set-up: species or system C57BL6 mice
Protocol: The compounds were administered orally (PO) and intraperitoneally (IP) to healthy animals. The inhibition of the MIF liver enzymatic activity determined ex vivo following IP and PO dosing is similar, indicating high oral bioavailability. Furthermore, brain and lung tissues were collected and processed to determine MIF enzymatic activity in these organs. […] Inhibition of MIF enzyme was determined […] following dosing of MIF-002 at 40 mg/kg once a day for three days, both IP and PO (normal C57BL6 mice, n=3). Tissues were collected at sacrifice and processed. Liver, lung, and brain tissues were collected, processed, and used for the determination of MIF enzyme activity. Values are expressed as a percentage calculated using DMSO as control (no inhibition).
Two additional compounds were tested, MIF-035 and MIF-041.

Du 145 = assay: Inhibition of tumor cells proliferation (CellTiter Glo); assay type: cell-based; conditions: Homo sapiens, 72 hours
Protocol: Inhibition of the proliferation of tumor cells was investigated in vitro in several tumor cell lines. Cells of the desired tumor cell line were plated at 2×10^5 cells/ml in 96 well plates. Twice the indicated concentrations of the compounds of the invention were added to cells the following day in an equal volume of media. 72 hours later, cells were lysed and subjected to ATP determination using the CellTiter Glo-Luminescent Cell Viability Assay kit (Promega, Madison, Wis.). Experiments were done in triplicate. Results for the inhibition of cells proliferation are reported as IC50 (the concentration leading to a 50% inhibition of proliferation of the cell population) and are listed in Table 6. FIGS. 3 and 4 show bar graphs comparing the IC50s of specific embodiments of compounds of the invention across multiple tumor cell lines.

[6] = tested on: Chick Chorioallantoic Membrane (CAM); assay: CAM assay with matrigel plugs; assay type: in vivo
Protocol: 8 groups with 10 embryos in each group were used in the experiment described below. Fresh fertile eggs were incubated for 3 days in a standard egg incubator at 37° C. for 3 days. On Day 3, eggs were cracked under sterile conditions and embryos were placed into 20×100 mm plastic plates and cultivated at 37° C. in an embryo incubator with a water reservoir on the bottom shelf. Air was continuously bubbled into the water reservoir using a small pump so that the humidity in the incubator is kept constant. On Day 6, a sterile silicon “o” ring was placed on each CAM and test compound dissolved in 0.5% methylcellulose was placed into each “o” ring in a sterile hood. Paclitaxel was used as a positive control. Embryos were returned to the incubator after addition of test material. Control embryos received 10 μL of vehicle alone. On Day 8, embryos were removed from the incubator and kept at room temperature while blood vessel density were determined under each “o” ring using an image capturing system at a magnification of 160×. The blood vessel density was measured using an angiogenesis scoring system in that arithmetic numbers 0 to 5 (or exponential numbers 1 to 32) are used to indicate number of blood vessels present at the treatment sites on the CAM. Number 5 represents the highest density and 0 represents no angiogenesis. The percent of inhibition at each dosing site was calculated using the score recorded for that site divided by the mean score obtained from the appropriate control samples for each individual experiment. The percent of inhibition for each dose of a given compound was calculated by pooling all results obtained for that dose from 8-10 embryos.
Another experiment was performed using a protocol similar to the one described above but using matrigel plugs instead of o ring to deliver the test material to the CAM. Results are summarized in Table 9 below and show a statistically significant inhibition of angiogenesis at the high concentrations of test material.

[7] = Caco-2 cell permeability and transport; assay type: in vitro ADME; set-up: Caco-2 Permeability Papp B-A / Caco-2 Permeability Papp A-B: unit not given here; conditions: human, Caco-2, pH 7.4
Protocol: (§1) Cell permeability and transport mechanisms in Caco-2 and MDR1-MDCK monolayers experiments were performed in triplicate in the apical-to-basolateral and basolateral-to-apical direction using […]® wells containing either Caco-2 or MDR1-MDCK monolayers. A modified Hanks buffer pH 7.4 was used in both reservoir and receiver wells with the addition of 1% BSA in the receiver side. Confluent monolayers were used and their integrity was verified using reference compounds (Atenolol as a low permeability reference compound and Propanolol as a high permeability reference compound). A sample in the basolateral and apical sides was taken after 2 hours and the concentration measured by LC/MS-MS.

Caco-2 monolayers = assay: Caco-2 cell permeability and transport; assay type: in vitro ADME; set-up: Caco-2 Permeability Papp B-A / Caco-2 Permeability Papp A-B: unit not given here
Protocol: as §1

LOX-IMV1 tumor cell line = assay: Inhibition of cell migration (Oris Cell Migration Assay); assay type: cell-based; conditions: 72 hrs, even at low concentrations (0.03 μM), FIG. 7
Protocol: The LOX-IMV1 tumor cell line was used to determine the inhibition of cell migration using the Oris Cell Migration Assay kit (Promega, Mich.). Briefly, adherent cells were seeded into each well of the kit according to kit instructions. Concentrations of cells in the migration zone were determined to calculate IC50 values. Prior to the migration assay, cell proliferation IC50s were determined to differentiate between inhibition of proliferation and migration. […] A slightly modified method was also used to determine the inhibition of invasion.

[8] = Microsomal stability in human liver microsomes; assay type: in vitro ADME
Protocol: Stability in human liver microsomes was tested over […] at 37° C. using pooled mixed gender human liver microsomes. Liver microsomes were prepared at 1.0 mg/ml of microsomal protein in a 100 mM potassium phosphate pH 7.4 buffer with 1 mM NADPH. The media was incubated at 37° C. with the compound in solution in DMSO. The concentration of the compound was followed by LC/MS-MS as a function of time. Samples were assayed at t=0, 30, 60 and 120 minutes. Testosterone was used as a positive control. The same experiment was performed with mouse liver microsomes instead of human liver microsomes.

[9] = Microsomal stability in human liver microsomes; assay type: in vitro ADME; conditions: 15 min; 37° C.; 1 mM NADPH

## Ic1cc(-c2ccccc2)ncn1 [4-IPP, 4-iodo-6-phenylpyrimidine, reference compound]
MIF [1]
  pIC50: < 5.70
[2]; 16 hours, FIGS. 17 and 18
  CD69 expression: only a marginal effect on CD69 expression
[2]; 48 hours, FIGS. 13 and 14
  CD4 and CD8 T lymphocytes after anti-CD3 activation: significantly fewer CD4 and CD8 T lymphocytes
[2]; 48 hours, FIGS. 15 and 16
  Anti-CD3-induced CD25 expression: almost completely blocked the anti-CD3-induced CD25 expression
[2]; 48 hours, FIGS. 19 and 20
  BrdU labeling of CD8+ and CD4+ T lymphocytes (proliferation): almost completely blocked BrdU labeling in both CD8+ and CD4+ T lymphocytes
MIF [3]
  MIF liver enzyme inhibition: significant in vivo inhibition of MIF

## NC(=O)c1cccc(-c2cc(I)ncn2)c1 [ACT-MIF-035, 4-Iodo-6-(3-aminocarbonylphenyl)pyrimidine]
MIF [1]
  pIC50: 6.73
[4]; aqueous with cosolvent or surfactant or cyclodextrin, Ethanol/Tween 80
  solubility: 10 mg/mL (≈ 30.8 mM)
[4]; oil or lipid, Corn oil
  solubility: < 6 mg/mL
[4]; organic solvent or mixture, Ethanol
  solubility: 1.4 mg/mL (≈ 4.31 mM)
[4]; organic solvent or mixture, PEG-300
  solubility: 13.3 mg/mL (≈ 40.9 mM)
[4]; organic solvent or mixture, Propane-diol
  solubility: 2.7 mg/mL (≈ 8.3 mM)
p53
  p53 regulation: implicated in p53 regulation
MIF [5]; judged from ex vivo MIF inhibition after IP and PO dosing
  Oral bioavailability: orally bioavailable
MIF [5]; judged from ex vivo MIF inhibition in brain
  Crossing of the blood brain barrier: crossed the blood brain barrier
Du 145
  pIC50: 4.66
[6]; 0.3 nM per CAM
  Blood Vessel Counts: 28.3 ± 1.7
[6]; 3 nM per CAM
  Blood Vessel Counts: 27.3 ± 2.4
[6]; 30 nM per CAM
  Blood Vessel Counts: 26.7 ± 1.9
[7]
  efflux ratio at 2 h: 1.1
Caco-2 monolayers
  Caco-2 Permeability Class: High
Caco-2 monolayers; apical-to-basolateral, pH 7.4, 2 hours
  Caco-2 Permeability Papp A-B: 3.1
Caco-2 monolayers; basolateral-to-apical, pH 7.4, 2 hours
  Caco-2 Permeability Papp B-A: 3.3
LOX-IMV1 tumor cell line
  Inhibition of cell migration: significant inhibition of migration
[8]; both, human, microsomes, 0 h, pH 7.4
  Metabolic Stability in Human Microsomes % Remaining: 100%
[8]; both, human, microsomes, 1 h, pH 7.4
  Metabolic Stability in Human Microsomes % Remaining: 92%

## C[C@]12CC[C@H]3[C@@H](CCC4=CC(=O)CC[C@@]43C)[C@@H]1CC[C@@H]2O [Testosterone, reference compound]
[9]
  Metabolic Stability in Human Microsomes % Remaining: 56%
[8]; 0 min, 37° C., 1 mM NADPH
  Metabolic Stability in Human Microsomes % Remaining: 100%
